In patent US20260083693A1, “PHARMACEUTICAL COMPOSITION FOR THE ACUTE TREATMENT OF MIGRAINE AND OTHER FORMS OF HEADACHE” (priority 2024, published 2026):
Where two headings read alike, the source gives them in different places.

Key:
[1] = Pharmacokinetic (bioavailability) study of ibuprofen + ketoprofen nasal spray in healthy adult human subjects, plasma by LC-MS/MS
Experimental: Pharmacokinetic study to evaluate the bioavailability of the pharmaceutical composition prepared according to the present disclosure.
Blood samples were centrifuged at about 4000 rpm for 10 minutes at 4±2° C. to separate the plasma. The resulting plasma was equally transferred into 2. These aliquots were stored frozen, upright in a freezer within 90 minutes of blood collection time of each sample at a temperature of −70° C. […] until they were analyzed.
Sample values below the LLOQ were reported as Below Quantification Limit (BQL). Pharmacokinetic parameters were calculated using Phoenix® WinNonlin® software (version: 8.3). The following parameters were calculated:
Primary pharmacokinetic parameters: Cmax, AUC0-t and AUC0-∞ Secondary pharmacokinetic parameters: tmax, t1/2, Kel and AUC_% Extrap_obs.

[2] = cited from earlier work
[3] = topical sustained release composition, at three hours; cited from earlier work

With CC(C)Cc1ccc(C(C)C(=O)O)cc1 (stereo not drawn) [ibuprofen] the AUC(0-inf) ([1]; human, in vivo, inhaled or intranasal, AUC0-∞ range over the dose range of the composition, intranasal, dosage unit 0.4-8 mg ibuprofen and 0.025-0.48 mg ketoprofen) was 133 to 1920 ng·h/mL, the Cmax ([1]; human, in vivo, inhaled or intranasal, plasma Cmax range over the dose range of the composition, intranasal, dosage unit 0.4-8 mg ibuprofen and 0.025-0.48 mg ketoprofen) was 41.4 to 828 ng/mL and the Cmax ([1]; human, in vivo, inhaled or intranasal, plasma Cmax, intranasal, 8 sprays (100 μL each), printed as equivalent to 1.816 mg ibuprofen and 0.24 mg ketoprofen) was 165 ng/mL. For the same compound, the “Cmax lower than expected Cmax of minimum approved oral dose” value ([1]; intranasal 8 sprays vs oral 200 mg ibuprofen / 12.5 mg ketoprofen) was “approximately 100 times”, the “expected Cmax for the minimum approved oral dose” value ([2]; oral ibuprofen 200 mg, as reported in the literature) was “approximately 17.3 μg/mL” and the maximum plasma concentration ([2]; oral ibuprofen, 400 mg) was 32.8 µg/mL. The “time of maximum plasma concentration” value ([2]; oral ibuprofen, 400 mg) was 90 min, the peak plasma concentration ([2]; oral ibuprofen, dose 100 mg) was 9.5 µg/mL and the “time of peak plasma concentration” value ([2]; oral ibuprofen, dose 100 mg) was 116 min.

For CC(C(=O)O)c1cccc(C(=O)c2ccccc2)c1 (stereo not drawn) [ketoprofen], the “peak plasma concentration of ketoprofen” value [3] is listed as “at most 450 ng/ml”, the peak plasma concentration ([2]; oral ketoprofen, dose 50 mg) is listed as 2.6 µg/mL and the “time of peak plasma concentration” value ([2]; oral ketoprofen, dose 50 mg) is listed as 134 min.
